“And” between values parts separate entries of the source, which are not always exact repeats. Identical values can stand only once. Toxic doses and inconclusive results are not listed. Rule as the data show it: active = T/C of 150% or more; inactive = T/C below 125%.
System: L1210 leukemia ip in BDF1 mice, survival T/C
Assay: NCI In Vivo Anticancer Drug Screen. Data for tumor model L1210 Leukemia (intraperitoneal) in B6D2F1 (BDF1) mice
Details: endpoint: mean survival time, higher = longer survival
How it was run: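 Transplanted-tumor mice were given test agent; controls received vehicle only. Survival readings from the two groups were divided (treated over control).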

[1] = dose: 100.0 mg/kg/injection, schedule: Q04DX002 (ip), vehicle: Klucel (hydroxypropylcellulose) (HPC)
[2] = dose: 200.0 mg/kg/injection, schedule: Q04DX002 (ip), vehicle: Klucel (hydroxypropylcellulose) (HPC)
[3] = dose: 400.0 mg/kg/injection, schedule: Q04DX002 (ip), vehicle: Klucel (hydroxypropylcellulose) (HPC)
[4] = dose: 50.0 mg/kg/injection, schedule: Q01DX009 (ip), vehicle: Klucel (hydroxypropylcellulose) (HPC)
[5] = dose: 100.0 mg/kg/injection, schedule: Q01DX009 (ip), vehicle: Klucel (hydroxypropylcellulose) (HPC)
[6] = dose: 100.0 mg/kg/injection, schedule: Q04DX003 (ip), vehicle: Klucel (hydroxypropylcellulose) (HPC)
[7] = dose: 200.0 mg/kg/injection, schedule: Q04DX003 (ip), vehicle: Klucel (hydroxypropylcellulose) (HPC)
[8] = dose: 400.0 mg/kg/injection, schedule: Q04DX003 (ip), vehicle: Klucel (hydroxypropylcellulose) (HPC)
[9] = dose: 200.0 mg/kg/injection, schedule: Q01DX009 (ip), vehicle: Klucel (hydroxypropylcellulose) (HPC)
[10] = dose: 400.0 mg/kg/injection, schedule: Q01DX009 (ip), vehicle: Klucel (hydroxypropylcellulose) (HPC)
[11] = dose: 100.0 mg/kg/injection, schedule: Q04DX003 (ip), vehicle: saline with Tween-80
[12] = dose: 200.0 mg/kg/injection, schedule: Q04DX003 (ip), vehicle: saline with Tween-80
[13] = dose: 400.0 mg/kg/injection, schedule: Q04DX003 (ip), vehicle: saline with Tween-80

Measured: T/C

CCOc1ccc(C(C)CC(=O)NN)c(O)c1 (configuration not stated)
inactive: dose: 75.0 mg/kg/injection, schedule: Q01DX001 (ip), vehicle: saline with Tween-80 95 % of control | dose: 150.0 mg/kg/injection, schedule: Q01DX001 (ip), vehicle: saline with Tween-80 98 % of control | dose: 300.0 mg/kg/injection, schedule: Q01DX001 (ip), vehicle: saline with Tween-80 101 % of control

O=C1OCC/C1=C\NCCCN/C=C1\CCOC1=O
inactive: [1] 105 % of control | [2] 108 % of control | [3] 94 % of control

Cc1cccc(SC(=O)Nc2ccccc2C(F)(F)F)c1
inactive: dose: 25.0 mg/kg/injection, schedule: Q01DX009 (ip), vehicle: Klucel (hydroxypropylcellulose) (HPC) 103 % of control | [4] 94 % of control | [5] 97 % of control and 102 % of control | [6] 98 % of control | [7] 109 % of control | [8] 93 % of control

C=CCc1ccc(OC)c(OC)c1
inactive: dose: 100.0 mg/kg/injection, schedule: Q04DX002 (ip), vehicle: saline 97 % of control | dose: 200.0 mg/kg/injection, schedule: Q04DX002 (ip), vehicle: saline 95 % of control | dose: 400.0 mg/kg/injection, schedule: Q04DX002 (ip), vehicle: saline 104 % of control

O=C(N/C=C/NC(=O)Oc1c(I)cc(I)cc1I)Oc1c(I)cc(I)cc1I
inactive: [5] 92 % of control | [9] 100 % of control | [10] 102 % of control

CS(=O)(=O)Cc1ccccc1
inactive: [5] 101 % of control | [1] 86 % of control | [9] 101 % of control | [2] 101 % of control | [10] 86 % of control | [3] 90 % of control

COC(=O)C1OC1c1cc(Cl)cc(Cl)c1OC (configuration not stated)
inactive: dose: 100.0 mg/kg/injection, schedule: Q01DX001 (ip), vehicle: saline 100 % of control | dose: 200.0 mg/kg/injection, schedule: Q01DX001 (ip), vehicle: saline 106 % of control | dose: 400.0 mg/kg/injection, schedule: Q01DX001 (ip), vehicle: saline 101 % of control

c1ccc(-c2nc(-c3ccccn3)nc(-c3ccccn3)n2)nc1
inactive: dose: 5.0 mg/kg/injection, schedule: Q01DX001 (ip), vehicle: saline 107 % of control | dose: 10.0 mg/kg/injection, schedule: Q01DX001 (ip), vehicle: saline 96 % of control | dose: 20.0 mg/kg/injection, schedule: Q01DX001 (ip), vehicle: saline 100 % of control | dose: 40.0 mg/kg/injection, schedule: Q01DX001 (ip), vehicle: saline 93 % of control | dose: 80.0 mg/kg/injection, schedule: Q01DX001 (ip), vehicle: saline 91 % of control

CC(=O)OC1CCC2(C)C(=CCC3C2CCC2(C)C3CC3C2C(c2ccccc2)=NN3c2ccccc2)C1 (configuration not stated)
inactive: dose: 6.0 mg/kg/injection, schedule: Q04DX002 (ip), vehicle: Klucel (hydroxypropylcellulose) (HPC) 93 % of control | dose: 12.5 mg/kg/injection, schedule: Q04DX002 (ip), vehicle: Klucel (hydroxypropylcellulose) (HPC) 104 % of control | dose: 25.0 mg/kg/injection, schedule: Q04DX002 (ip), vehicle: Klucel (hydroxypropylcellulose) (HPC) 96 % of control | dose: 50.0 mg/kg/injection, schedule: Q04DX002 (ip), vehicle: Klucel (hydroxypropylcellulose) (HPC) 96 % of control

ClCc1nc2ccc(Cl)cc2[nH]1
inactive: dose: 100.0 mg/kg/injection, schedule: Q01DX001 (ip), vehicle: other 104 % of control | dose: 200.0 mg/kg/injection, schedule: Q01DX001 (ip), vehicle: other 106 % of control

CCCCCCCC(=O)N1C2CN3C4=C(C(=O)C(N)=C(C)C4=O)C(COC(N)=O)C3(OC)C21 (configuration not stated)
inactive: dose: 6.6 mg/kg/injection, schedule: Q01DX001 (ip), vehicle: acetone 115 % of control | dose: 9.9 mg/kg/injection, schedule: Q01DX001 (ip), vehicle: acetone 113 % of control

COc1ccc(OC)c(-n2cccc2C#N)c1
inactive: [1] 104 % of control | [2] 97 % of control | [3] 104 % of control

COc1ccccc1NC(=O)Nc1ccc(C)c(C)c1
inactive: dose: 100.0 mg/kg/injection, schedule: Q01DX009 (ip), vehicle: gum acacia 92 % of control | dose: 100.0 mg/kg/injection, schedule: Q04DX003 (ip), vehicle: gum acacia 96 % of control | dose: 200.0 mg/kg/injection, schedule: Q01DX009 (ip), vehicle: gum acacia 96 % of control | dose: 200.0 mg/kg/injection, schedule: Q04DX003 (ip), vehicle: gum acacia 98 % of control | dose: 400.0 mg/kg/injection, schedule: Q01DX009 (ip), vehicle: gum acacia 90 % of control | dose: 400.0 mg/kg/injection, schedule: Q04DX003 (ip), vehicle: gum acacia 90 % of control

Fc1ccc(-c2n[nH]c3c2CCCc2ccccc2-3)cc1
inactive: [11] 113 % of control | [12] 111 % of control | [13] 102 % of control

CC(O)C(c1ccccc1)S(C)(=O)=O (configuration not stated)
inactive: [5] 117 % of control | [6] 104 % of control | [9] 96 % of control | [7] 111 % of control | [10] 95 % of control | [8] 94 % of control

O=[N+]([O-])C(Cl)(CN1CCOCC1)CN1CCOCC1
inactive: dose: 11.1 mg/kg/injection, schedule: Q01DX Z (ip), vehicle: saline 113 % of control | dose: 16.6 mg/kg/injection, schedule: Q01DX Z (ip), vehicle: saline 91 % of control | dose: 25.0 mg/kg/injection, schedule: Q01DX Z (ip), vehicle: saline 95 % of control

Cc1[nH]nc(C(=O)N(C)C)c1N=NN(C)C
inactive: dose: 75.0 mg/kg/injection, schedule: Q01DX001 (ip), vehicle: saline 116 % of control

CC(CO)(CO)N=Cc1cc([N+](=O)[O-])ccc1O
inactive: dose: 100.0 mg/kg/injection, schedule: Q01DX001 (ip), vehicle: carboxymethylcellulose (CMC) 98 % of control | dose: 200.0 mg/kg/injection, schedule: Q01DX001 (ip), vehicle: carboxymethylcellulose (CMC) 98 % of control | dose: 400.0 mg/kg/injection, schedule: Q01DX001 (ip), vehicle: carboxymethylcellulose (CMC) 98 % of control

NC(Cn1ccc(=O)c(O)c1)C(=O)O (configuration not stated)
inactive: dose: 50.0 mg/kg/injection, schedule: Q01DX009 (ip), vehicle: saline 105 % of control | dose: 75.0 mg/kg/injection, schedule: Q04DX003 (ip), vehicle: saline 103 % of control | dose: 100.0 mg/kg/injection, schedule: Q01DX009 (ip), vehicle: saline 102 % of control | [11] 95 % of control | dose: 111.0 mg/kg/injection, schedule: Q01DX Z (ip), vehicle: saline 92 % of control | dose: 150.0 mg/kg/injection, schedule: Q04DX003 (ip), vehicle: saline 92 % of control | dose: 178.0 mg/kg/injection, schedule: Q01DX Z (ip), vehicle: saline 95 % of control | dose: 200.0 mg/kg/injection, schedule: Q01DX009 (ip), vehicle: saline 102 % of control | [12] 94 % of control | dose: 267.0 mg/kg/injection, schedule: Q01DX Z (ip), vehicle: saline 108 % of control | dose: 300.0 mg/kg/injection, schedule: Q04DX003 (ip), vehicle: saline 90 % of control | dose: 400.0 mg/kg/injection, schedule: Q01DX Z (ip), vehicle: saline 93 % of control | [13] 100 % of control | dose: 800.0 mg/kg/injection, schedule: Q01DX009 (ip), vehicle: saline 111 % of control

O=C(Nc1ccc(F)cc1)NN1CCOCC1
inactive: [4] 104 % of control | [5] 90 % of control | [9] 97 % of control

Reference: PubChem BioAssay AID248 (DTP/NCI, 2004)
